Data published in ChEMBL document CHEMBL4507291 (2021).

Columns and labels:
[1] = molecular target: Ephrin type-A receptor 4 (Homo sapiens) (UniProt P54764); assay: EPHA4 Kinase screen; conditions: Compound concentration 1.0 uM
[2] = molecular target: Aurora kinase B (Homo sapiens) (UniProt Q96GD4)
[3] = molecular target: Dual specificity tyrosine-phosphorylation-regulated kinase 1A (Homo sapiens) (UniProt Q13627); assay: DYRK1A Kinase screen; conditions: Compound concentration 1.0 uM
[4] = molecular target: D(2) dopamine receptor (Homo sapiens) (UniProt P14416); conditions: Compound concentration 10.0 uM
[5] = molecular target: T1, Dual specificity protein kinase TTK (Homo sapiens) (UniProt P33981); assay: TTK Kinase screen; conditions: Compound concentration 1.0 uM
T1 sequence (whole entry): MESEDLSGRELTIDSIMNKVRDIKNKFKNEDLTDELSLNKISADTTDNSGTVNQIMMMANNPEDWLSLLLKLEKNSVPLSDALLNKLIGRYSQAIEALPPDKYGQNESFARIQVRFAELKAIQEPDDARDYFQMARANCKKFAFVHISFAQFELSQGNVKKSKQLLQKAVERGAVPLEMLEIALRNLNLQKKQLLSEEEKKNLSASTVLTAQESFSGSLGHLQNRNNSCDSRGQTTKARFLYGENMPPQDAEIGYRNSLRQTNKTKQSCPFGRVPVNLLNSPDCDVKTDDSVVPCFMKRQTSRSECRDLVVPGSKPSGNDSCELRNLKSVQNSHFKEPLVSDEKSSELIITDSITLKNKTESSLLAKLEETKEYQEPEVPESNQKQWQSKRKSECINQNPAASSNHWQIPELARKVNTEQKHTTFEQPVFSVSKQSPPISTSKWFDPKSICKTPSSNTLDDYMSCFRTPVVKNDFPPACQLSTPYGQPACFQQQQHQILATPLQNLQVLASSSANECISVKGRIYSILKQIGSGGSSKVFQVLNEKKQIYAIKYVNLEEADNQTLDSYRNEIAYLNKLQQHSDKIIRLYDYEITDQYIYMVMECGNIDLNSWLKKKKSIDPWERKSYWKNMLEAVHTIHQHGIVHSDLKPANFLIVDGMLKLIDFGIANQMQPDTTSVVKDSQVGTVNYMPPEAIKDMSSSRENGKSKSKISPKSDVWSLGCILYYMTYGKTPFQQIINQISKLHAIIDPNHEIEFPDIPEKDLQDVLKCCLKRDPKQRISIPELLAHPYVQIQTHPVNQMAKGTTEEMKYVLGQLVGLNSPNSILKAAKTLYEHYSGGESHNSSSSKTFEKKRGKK

[6] = molecular target: T2, Serine/threonine-protein kinase DCLK2 (Homo sapiens) (UniProt Q8N568); assay: DCAMKL2 (DCK2) Kinase screen; conditions: Compound concentration 1.0 uM
T2 sequence (whole entry): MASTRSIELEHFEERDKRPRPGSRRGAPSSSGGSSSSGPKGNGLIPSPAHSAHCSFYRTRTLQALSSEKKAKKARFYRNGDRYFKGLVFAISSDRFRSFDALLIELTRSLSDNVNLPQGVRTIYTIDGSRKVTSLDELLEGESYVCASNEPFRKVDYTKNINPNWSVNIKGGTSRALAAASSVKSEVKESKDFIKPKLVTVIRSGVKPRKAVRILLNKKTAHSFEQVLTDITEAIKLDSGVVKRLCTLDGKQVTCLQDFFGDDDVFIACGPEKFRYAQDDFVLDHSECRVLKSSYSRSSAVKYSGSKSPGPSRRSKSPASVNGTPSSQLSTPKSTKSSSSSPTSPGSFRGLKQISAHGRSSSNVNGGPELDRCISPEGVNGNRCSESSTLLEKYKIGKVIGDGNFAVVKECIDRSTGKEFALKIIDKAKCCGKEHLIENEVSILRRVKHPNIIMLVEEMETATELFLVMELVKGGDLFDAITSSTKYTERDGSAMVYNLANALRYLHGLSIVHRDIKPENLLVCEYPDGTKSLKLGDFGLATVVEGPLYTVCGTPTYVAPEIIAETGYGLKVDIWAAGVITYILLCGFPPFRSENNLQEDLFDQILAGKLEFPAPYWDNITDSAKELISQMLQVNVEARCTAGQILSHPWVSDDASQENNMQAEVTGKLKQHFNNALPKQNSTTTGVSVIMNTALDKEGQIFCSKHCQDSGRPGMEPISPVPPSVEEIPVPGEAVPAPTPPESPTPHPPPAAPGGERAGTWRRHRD

[7] = molecular target: Phosphatidylinositol 4-kinase alpha (Homo sapiens) (UniProt P42356); assay: PI4KA (PI4K alpha) Kinase screen; conditions: Compound concentration 1.0 uM
[8] = molecular target: MAP kinase-activated protein kinase 2 (Homo sapiens) (UniProt P49137); assay: MAPKAPK2 Kinase screen; conditions: Compound concentration 1.0 uM
[9] = species: Homo sapiens; assay: Somatostatin sst2 Eurofins-Panlabs radioligand binding assay; parameters: ligand concentration 0.03 nM; conditions: Compound concentration 10.0 uM
[10] = molecular target: Serine/threonine-protein kinase MRCK alpha (Homo sapiens) (UniProt Q5VT25); assay: CDC42 BPA (MRCKA) Kinase screen; conditions: Compound concentration 1.0 uM
[11] = molecular target: T3, MAP kinase-activated protein kinase 5 (Homo sapiens) (UniProt Q8IW41); assay: MAPKAPK5 (PRAK) Kinase screen; conditions: Compound concentration 1.0 uM
T3 sequence (whole entry): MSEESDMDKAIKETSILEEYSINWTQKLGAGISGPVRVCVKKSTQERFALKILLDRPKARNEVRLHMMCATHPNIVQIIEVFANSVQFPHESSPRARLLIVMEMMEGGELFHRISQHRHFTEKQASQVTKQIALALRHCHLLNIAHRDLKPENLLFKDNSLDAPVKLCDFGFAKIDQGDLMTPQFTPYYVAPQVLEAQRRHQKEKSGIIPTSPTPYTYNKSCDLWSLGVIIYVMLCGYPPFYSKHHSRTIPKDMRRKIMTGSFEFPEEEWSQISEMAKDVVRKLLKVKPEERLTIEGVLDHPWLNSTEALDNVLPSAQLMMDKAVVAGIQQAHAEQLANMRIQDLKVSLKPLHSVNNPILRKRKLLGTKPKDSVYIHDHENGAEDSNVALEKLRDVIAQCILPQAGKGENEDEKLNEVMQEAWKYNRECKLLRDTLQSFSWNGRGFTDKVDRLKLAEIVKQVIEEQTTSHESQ

[12] = molecular target: Prostacyclin receptor (Homo sapiens) (UniProt P43119); assay: Prostanoid IP Eurofins-Panlabs radioligand binding assay; conditions: Compound concentration 10.0 uM
[13] = molecular target: G protein-coupled receptor kinase 6 (Homo sapiens) (UniProt P43250); assay: GRK6 Kinase screen; conditions: Compound concentration 1.0 uM
[14] = molecular target: Mast/stem cell growth factor receptor Kit (Homo sapiens) (UniProt P10721); assay: KIT Kinase screen; conditions: Compound concentration 1.0 uM
[15] = molecular target: Protein kinase C alpha type (Homo sapiens) (UniProt P17252); assay: PRKCA (PKC alpha) Kinase screen; conditions: Compound concentration 1.0 uM
[16] = molecular target: Phosphatidylinositol 4,5-bisphosphate 3-kinase catalytic subunit alpha isoform (Homo sapiens) (UniProt P42336)
[17] = molecular target: Ephrin type-A receptor 2 (Homo sapiens) (UniProt P29317); assay: EPHA2 Kinase screen; conditions: Compound concentration 1.0 uM
[18] = molecular target: Macrophage colony-stimulating factor 1 receptor (Homo sapiens) (UniProt P07333); assay: CSF1R (FMS) Kinase screen; conditions: Compound concentration 1.0 uM
[19] = Compound concentration 100.0 nM
[20] = Compound concentration 1000.0 nM

Chain of Aurora kinase B (Homo sapiens) (Q96GD4 whole entry): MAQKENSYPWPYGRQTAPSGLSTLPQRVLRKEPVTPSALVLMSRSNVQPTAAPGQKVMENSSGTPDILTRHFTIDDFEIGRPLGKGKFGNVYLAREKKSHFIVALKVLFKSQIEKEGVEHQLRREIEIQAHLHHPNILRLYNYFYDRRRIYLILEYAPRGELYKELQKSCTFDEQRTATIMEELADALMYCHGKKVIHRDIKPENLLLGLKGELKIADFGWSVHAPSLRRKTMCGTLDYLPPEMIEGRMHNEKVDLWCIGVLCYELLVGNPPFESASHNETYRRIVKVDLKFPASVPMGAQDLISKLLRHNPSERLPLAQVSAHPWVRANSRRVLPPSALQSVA
Chain of Phosphatidylinositol 4,5-bisphosphate 3-kinase catalytic subunit alpha isoform (Homo sapiens) (P42336 whole entry, canonical isoform): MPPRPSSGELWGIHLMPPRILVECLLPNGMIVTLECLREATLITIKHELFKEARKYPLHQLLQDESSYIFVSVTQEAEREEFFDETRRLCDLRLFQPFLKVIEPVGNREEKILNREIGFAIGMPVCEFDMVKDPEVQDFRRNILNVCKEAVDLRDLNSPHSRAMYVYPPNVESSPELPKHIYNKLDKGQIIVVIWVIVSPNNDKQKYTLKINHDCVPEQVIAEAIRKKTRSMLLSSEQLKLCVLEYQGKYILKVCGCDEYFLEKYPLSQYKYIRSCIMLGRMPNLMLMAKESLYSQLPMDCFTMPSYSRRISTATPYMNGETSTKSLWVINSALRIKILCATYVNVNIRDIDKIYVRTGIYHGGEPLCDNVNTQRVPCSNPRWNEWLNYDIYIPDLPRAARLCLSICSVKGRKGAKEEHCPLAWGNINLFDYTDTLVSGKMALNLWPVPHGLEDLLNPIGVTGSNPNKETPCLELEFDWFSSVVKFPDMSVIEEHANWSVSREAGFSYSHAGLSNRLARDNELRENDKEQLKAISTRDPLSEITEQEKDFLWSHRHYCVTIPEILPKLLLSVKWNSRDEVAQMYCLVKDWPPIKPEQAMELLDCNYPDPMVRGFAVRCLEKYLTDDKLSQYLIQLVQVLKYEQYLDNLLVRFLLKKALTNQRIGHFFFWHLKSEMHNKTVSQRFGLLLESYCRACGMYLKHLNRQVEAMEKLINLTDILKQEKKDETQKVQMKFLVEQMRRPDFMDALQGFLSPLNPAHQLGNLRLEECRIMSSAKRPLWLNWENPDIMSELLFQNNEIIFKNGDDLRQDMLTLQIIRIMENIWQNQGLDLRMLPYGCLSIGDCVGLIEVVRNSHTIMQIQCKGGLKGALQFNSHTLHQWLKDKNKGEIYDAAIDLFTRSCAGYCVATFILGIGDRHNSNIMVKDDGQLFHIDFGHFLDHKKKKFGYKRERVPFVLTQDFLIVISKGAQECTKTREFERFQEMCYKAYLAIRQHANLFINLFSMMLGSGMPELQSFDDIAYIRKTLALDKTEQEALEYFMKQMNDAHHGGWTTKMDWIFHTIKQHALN
Chain of Serine/threonine-protein kinase MRCK alpha (Homo sapiens) (Q5VT25 whole entry): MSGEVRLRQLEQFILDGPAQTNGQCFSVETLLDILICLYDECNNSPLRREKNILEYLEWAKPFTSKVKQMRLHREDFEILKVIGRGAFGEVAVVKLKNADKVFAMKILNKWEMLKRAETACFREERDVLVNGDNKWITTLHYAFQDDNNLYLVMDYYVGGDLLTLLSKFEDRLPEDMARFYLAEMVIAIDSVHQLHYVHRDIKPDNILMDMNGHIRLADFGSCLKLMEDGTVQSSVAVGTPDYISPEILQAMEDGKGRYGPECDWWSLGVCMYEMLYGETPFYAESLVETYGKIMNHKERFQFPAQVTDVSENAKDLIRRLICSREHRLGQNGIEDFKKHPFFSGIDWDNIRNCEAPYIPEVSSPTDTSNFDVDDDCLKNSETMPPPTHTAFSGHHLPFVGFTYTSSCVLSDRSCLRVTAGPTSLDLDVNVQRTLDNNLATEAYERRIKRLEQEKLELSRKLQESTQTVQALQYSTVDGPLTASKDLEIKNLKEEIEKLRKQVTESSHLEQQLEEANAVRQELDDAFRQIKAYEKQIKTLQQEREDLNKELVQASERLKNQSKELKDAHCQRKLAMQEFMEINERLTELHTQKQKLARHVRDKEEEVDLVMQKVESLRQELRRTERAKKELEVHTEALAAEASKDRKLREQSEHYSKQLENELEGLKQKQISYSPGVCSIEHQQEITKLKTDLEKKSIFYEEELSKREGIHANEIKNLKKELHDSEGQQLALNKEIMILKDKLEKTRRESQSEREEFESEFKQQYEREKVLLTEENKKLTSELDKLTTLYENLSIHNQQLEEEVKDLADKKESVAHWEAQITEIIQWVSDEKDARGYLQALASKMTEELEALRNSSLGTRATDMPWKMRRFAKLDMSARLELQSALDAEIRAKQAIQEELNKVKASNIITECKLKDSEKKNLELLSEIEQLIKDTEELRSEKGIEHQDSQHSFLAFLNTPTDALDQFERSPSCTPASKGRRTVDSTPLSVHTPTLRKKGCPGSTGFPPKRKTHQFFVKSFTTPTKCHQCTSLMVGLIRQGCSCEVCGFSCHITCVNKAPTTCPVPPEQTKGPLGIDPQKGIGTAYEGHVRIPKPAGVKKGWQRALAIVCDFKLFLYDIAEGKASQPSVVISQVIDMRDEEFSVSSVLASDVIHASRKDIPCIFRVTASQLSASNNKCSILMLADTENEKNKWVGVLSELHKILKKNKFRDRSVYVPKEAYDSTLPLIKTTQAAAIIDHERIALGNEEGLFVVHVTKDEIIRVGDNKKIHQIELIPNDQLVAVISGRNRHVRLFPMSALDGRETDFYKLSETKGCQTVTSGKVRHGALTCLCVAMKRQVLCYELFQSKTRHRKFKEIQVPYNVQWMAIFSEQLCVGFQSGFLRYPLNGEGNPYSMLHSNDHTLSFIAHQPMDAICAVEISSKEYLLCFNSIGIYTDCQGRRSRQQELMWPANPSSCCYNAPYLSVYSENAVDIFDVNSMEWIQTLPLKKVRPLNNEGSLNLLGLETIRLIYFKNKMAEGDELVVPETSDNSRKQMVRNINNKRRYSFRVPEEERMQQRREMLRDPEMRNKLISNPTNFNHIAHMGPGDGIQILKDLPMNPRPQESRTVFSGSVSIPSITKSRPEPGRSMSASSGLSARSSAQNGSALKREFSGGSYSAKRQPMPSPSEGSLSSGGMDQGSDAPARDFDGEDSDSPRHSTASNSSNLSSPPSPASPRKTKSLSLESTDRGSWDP
Chain of Mast/stem cell growth factor receptor Kit (Homo sapiens) (P10721 whole entry): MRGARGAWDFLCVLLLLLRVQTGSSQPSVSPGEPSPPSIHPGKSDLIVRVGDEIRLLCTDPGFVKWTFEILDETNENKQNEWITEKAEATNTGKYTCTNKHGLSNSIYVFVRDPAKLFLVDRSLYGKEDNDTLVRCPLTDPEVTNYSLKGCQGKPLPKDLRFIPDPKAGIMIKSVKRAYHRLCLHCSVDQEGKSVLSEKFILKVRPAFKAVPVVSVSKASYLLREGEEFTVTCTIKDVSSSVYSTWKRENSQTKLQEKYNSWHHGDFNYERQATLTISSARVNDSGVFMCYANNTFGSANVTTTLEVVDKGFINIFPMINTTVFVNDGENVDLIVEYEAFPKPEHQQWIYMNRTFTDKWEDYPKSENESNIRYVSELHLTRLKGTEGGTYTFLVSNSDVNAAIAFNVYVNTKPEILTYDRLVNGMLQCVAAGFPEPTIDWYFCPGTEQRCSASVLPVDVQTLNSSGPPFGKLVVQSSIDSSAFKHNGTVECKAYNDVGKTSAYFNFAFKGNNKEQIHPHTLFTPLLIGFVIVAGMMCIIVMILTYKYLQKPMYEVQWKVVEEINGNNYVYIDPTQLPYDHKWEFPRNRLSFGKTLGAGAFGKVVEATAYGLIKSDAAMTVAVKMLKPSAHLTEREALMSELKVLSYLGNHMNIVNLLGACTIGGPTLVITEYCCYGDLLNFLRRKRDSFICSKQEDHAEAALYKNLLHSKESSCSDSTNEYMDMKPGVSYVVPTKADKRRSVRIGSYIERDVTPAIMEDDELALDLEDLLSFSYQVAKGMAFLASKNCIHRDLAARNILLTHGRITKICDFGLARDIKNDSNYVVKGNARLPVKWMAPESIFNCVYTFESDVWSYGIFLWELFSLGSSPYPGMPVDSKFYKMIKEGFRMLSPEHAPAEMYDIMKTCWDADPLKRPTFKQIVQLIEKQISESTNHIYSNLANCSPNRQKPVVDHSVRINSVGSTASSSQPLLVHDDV

C[C@@H]1CN(c2cc(-c3n[nH]c4ccc(OC5(C)CC5)cc34)ncn2)C[C@H](C)O1 [MLi-2]
inactive: inhibition [1] 4.82% | residual activity [2, 19] 73% | inhibition [3] 4.36% | inhibition [4] 11% | inhibition [5] 56.5% | inhibition [6] 5.61% | inhibition [7] 5.35% | inhibition [8] 2.35% | inhibition [9] 13% | inhibition [10] 2.46% | inhibition [11] 14.2% | inhibition [12] -9% | inhibition [13] 6.63% | inhibition [14] 5.52% | inhibition [15] -4.08% | residual activity [16, 19] 100% | inhibition [17] -4.26% | inhibition [18] 6.91%

C[C@@H]1CN(c2cc(-c3nn(C)c4ccc(OC5(C)CC5)cc34)ncn2)C[C@H](C)O1 [MLi-2-NC]
inactive: residual activity [2, 20] 94% | residual activity [16, 20] 100%
